This note sets out measurements from US8664223B2, “Pyridine and pyrimidine derivatives as inhibitors of histone deacetylase” (Janssen Pharmaceutica N.V, priority 2006, dated 2014).

Assay in series [1]: not given
The source holds these as a separate data set.

Series [2] deals with histone deacetylase (HeLa nuclear extracts). The series is described as follows: In vitro assay for inhibition of histone deacetylase with fluorescent-labelled substrate (Fluor de Lys). The series is classed as biochemical. The following applies: HeLa nuclear extracts 60 μg/ml, 75 μM substrate. The source says:
The in vitro assay for inhibition of histone deacetylase (see example C.1) measures the inhibition of HDAC enzymatic activity obtained with the compounds of formula (I).
The HDAC Fluorescent Activity Assay/Drug Discovery Kit of Biomol (cat. No: AK-500-0001) was used. The HDAC Fluorescent Activity Assay is based on the Fluor de Lys (Fluorogenic Histone deAcetylase Lysyl) substrate and developer combination. The Fluor de Lys substrate, comprises an acetylated lysine side chain. Deacetylation of the substrate sensitizes the substrate so that, in the second step, treatment with the Fluor de Lys developer produces a fluorophore.
HeLa nuclear extracts (supplier: Biomol) were incubated at 60 μg/ml with 75 μM of substrate. The Fluor de Lys substrate was added in a buffer containing 25 mM Tris, 137 mM NaCl, 2.7 mM KCl and 1 mM MgCl2.6H2O at pH 7.4. After 30 min, 1 volume of the developer was added. The fluorophore was excited with 355 nm light and the emitted light (450 nm) was be detected on a fluorometric plate reader.
For each experiment, controls (containing HeLa nuclear extract and buffer), a blank incubation (containing buffer but no HeLa nuclear extract) and samples (containing compound dissolved in DMSO and further diluted in buffer and HeLa nuclear extract) were run in parallel. In first instance, compounds were tested at a concentration of 10^−5M. […] All sample were tested 4 times. In each test the blank value was subtracted from both the control and the sample values. The control sample represented 100% of substrate deacetylation. For each sample the fluorescence was expressed as a percentage of the mean value of the controls. […] Herein the effects of test compounds are expressed as pIC50 (the negative log value of the IC50-value) (see Table F-2).

In series [3] the test system is A2780 ovarian carcinoma cells. Put plainly: Antiproliferative activity on A2780 cells (MTT). It counts as cell-based. The settings on record: Homo sapiens, 96 h, four days of incubation, read-out: Cellular activity pIC50 C.2 (converted). How it is done:
Cellular activity of the compounds of formula (I) was determined on A2780 tumour cells using a colorimetric assay for cell toxicity or survival (Mosmann Tim, Journal of Immunological Methods 65: 55-63, 1983) (see example C.2).
All compounds tested were dissolved in DMSO and further dilutions were made in culture medium. Final DMSO concentrations never exceeded 0.1% (v/v) in cell proliferation assays. Controls contained A2780 cells and DMSO without compound and blanks contained DMSO but no cells. MTT was dissolved at 5 mg/ml in PBS. A glycine buffer comprised of 0.1 M glycine and 0.1 M NaCl buffered to pH 10.5 with NaOH (1N) was prepared (all reagents were from Merck).
The human A2780 ovarian carcinoma cells (a kind gift from Dr. T. C. Hamilton [Fox Chase Cancer Centre, Pennsylvania, USA]) were cultured in RPMI 1640 medium supplemented with 2 mM L-glutamine, 50 μg/ml gentamicin and 10% fetal calf serum. Cells were routinely kept as monolayer cultures at 37° C. in a humidified 5% CO2 atmosphere. Cells were passaged once a week using a trypsin/EDTA solution at a split ratio of 1:40. All media and supplements were obtained from Life Technologies. Cells were free of mycoplasma contamination as determined using the Gen-Probe Mycoplasma Tissue Culture kit (supplier: BioMérieux).
Cells were seeded in NUNC™ 96-well culture plates (Supplier: Life Technologies) and allowed to adhere to the plastic overnight. Densities used for plating were 1500 cells per well in a total volume of 200 μl medium. After cell adhesion to the plates, medium was changed and drugs and/or solvents were added to a final volume of 200 μl. Following four days of incubation, medium was replaced by 200 μl fresh medium and cell density and viability was assessed using an MTT-based assay. To each well, 25 μl MTT solution was added and the cells were further incubated for 2 hours at 37° C. The medium was then carefully aspirated and the blue MTT-formazan product was solubilized by addition of 25 μl glycine buffer followed by 100 μl of DMSO. […] Within an experiment, the results for each experimental condition are the mean of 3 replicate wells. For initial screening purposes, compounds were tested at a single fixed concentration of 10^−6 M. For active compounds, the experiments were repeated to establish full concentration-response curves. For each experiment, controls (containing no drug) and a blank incubation (containing no cells or drugs) were run in parallel. The blank value was subtracted from all control and sample values. For each sample, the mean value for cell growth (in absorbance units) was expressed as a percentage of the mean value for cell growth of the control. […] Herein the effects of test compounds are expressed as pIC50 (the negative log value of the IC50-value) (see Table F-2).

Series [4] is described as follows: Solubility/stability at pH 2.3 (chemiluminescent nitrogen detector). The following applies: pH 2.3, aqueous buffer; read-out: Solubility C.3.b. pH = 2.3. It counts as physicochemical. Here is the method: The solubility of a compound measures the ability of a compound to stay in solution. In the first method, the ability of a compound to stay in aqueous solution upon dilution (see example C.3.a) is measured. DMSO-stock solutions are diluted with a single aqueous buffer solvent in different consecutive steps. In this method (C.3.a), mixtures are then scanned in the BD Gentest Solubility Scanner for the occurrence of precipitation. In the second method the solubility of a compound at different pH's can be measured with the use of a chemiluminescent nitrogen detector (see example C.3.b).
C.3.b. Solubility/Stability at pH 2.3
The solubility of a compound, at pH 2.3, can also be measured with the use of a chemiluminescent nitrogen detector (see Table F-2).

Converted amounts (≈) assume the structure as drawn. Where a name gives a salt, the structure may show the parent alone. Read-outs that look alike come from different tables or passages of the source.

In the case of `CC(=O)NC(/C=C/c1ccccc1)CN1CCN(c2ncc(C(=O)NO)cn2)CC1` (stereo not drawn) (as salt: trifluoroacetic acid salt) (hydrate or solvate) [Compound 1], the melting point worked out at 166 °C. As for `O=C(NO)c1cnc(N2CCN(CC(/C=C/c3ccccc3)N3C(=O)CCC3=O)CC2)nc1` (stereo not drawn) (as salt: trifluoroacetic acid salt) (hydrate or solvate) [Compound 3], the melting point amounted to 148 °C. In turn, `O=C(NO)c1cnc(N2CCN(CC(/C=C/c3ccccc3)Oc3ccc(F)cc3)CC2)nc1` (stereo not drawn) (as salt: trifluoroacetic acid salt) (hydrate or solvate) [Compound 4] came in with a melting point of 115 °C. As to `NC(/C=C/c1ccccc1)CN1CCN(c2ncc(C(=O)NO)cn2)CC1` (stereo not drawn) (as salt: trifluoroacetic acid salt) [Compound 2], the melting point came to 124 °C. On to `COc1cc(N)c(Cl)cc1C(=O)NC1CCN(CCCOc2ccc(F)cc2)CC1OC` (stereo not drawn) [Cisapride], for which the “% metabolism” value in series [1] (human, 15 min, 5 μM) is recorded as 45%. Take `CC(=O)NC(/C=C/c1ccccc1)CN1CCN(c2ncc(C(=O)NO)cn2)CC1` (stereo not drawn) [Compound 1]: the “Enzymatic activity pIC50 C.1” value in series [2] was found to be 8.2. Moreover, in series [3], the IC50 is 398 nM. Besides, the solubility in series [4] is 2400 µg/mL (≈ 5.85 mM). For the molecule `NC(/C=C/c1ccccc1)CN1CCN(c2ncc(C(=O)NO)cn2)CC1` (stereo not drawn) [Compound 2], the “Enzymatic activity pIC50 C.1” value in series [2] is given as 8.2. Further, the IC50 in series [3] was 79.4 nM. The solubility in series [4] is 3100 µg/mL (≈ 8.41 mM). For `O=C(NO)c1cnc(N2CCN(CC(/C=C/c3ccccc3)N3C(=O)CCC3=O)CC2)nc1` (stereo not drawn) [Compound 3], in series [2], the “Enzymatic activity pIC50 C.1” value was 7.5. Moreover, the IC50 in series [3] is 7940 nM. For the molecule `O=C(NO)c1cnc(N2CCN(CC(/C=C/c3ccccc3)Oc3ccc(F)cc3)CC2)nc1` (stereo not drawn) [Compound 4], the “Enzymatic activity pIC50 C.1” value in series [2] came out at 7.3. Moreover, in series [3], the IC50 is 1580 nM.

As for `CS(=O)(=O)NC(/C=C/c1ccc(F)cc1)CN1CCN(c2ccc(C(=O)NO)cn2)CC1` (stereo not drawn) [Compound 6], in series [2], the “Enzymatic activity pIC50 C.1” value stood at 7.0. The IC50 in series [3] was 5010 nM. Consider `CCCO` [propanol], for which, in series [1] (after 15 min incubation with active microsomes, compound 5 μM), the “% metabolism” value is reported as 25%.
